Laboratory results taken from patent publication US20170327509A1, “TWO-PHOTON ABSORBING FLUOROPHORES AND METHOD FOR CELLULAR IMAGING USING THE SAME” (POSTECH ACADEMY-INDUSTRY FOUNDATION, priority 2014, published 2017).
Where two headings read alike, the source gives them in different places. Blank lines part the entries; values can stand above or below the molecule they belong to.

Tests used:
[1] = Fluorescence spectra / fluorescence intensities in solution; type: physicochemical; details: 1 μM in water (containing 1% DMSO); excitation at the maximum absorption wavelength; FIG. 40
Experimental: 10. […] 11. […] 12. […] 32. All fluorescence spectra were measured at the […] (FIG. 14). The fluorescence spectra were measured using a Photon Technical International Fluorescence System.
13(a). […] 13 (b, left) and FIG. 13 (b, right). Referring to FIGS. 9 and 13, it can be confirmed that fluorescence intensities of the two-photon absorbing fluorophores (particularly, Compounds 2 to 8) of the present invention in HEPES buffer (containing 1% DMSO, pH 7.4) and water (containing 1% DMSO) are higher than those of the conventional acedan (Compound 1).
In addition, to compare the fluorescence intensities of the compounds in aqueous solution according to a structural change, fluorescence intensities of Compounds 1, 5, and 13 to 18 at the concentration of 1 μM in water (containing 1% DMSO) were compared, and the results are shown in FIG. 40. The fluorescence intensities were measured through excitation of each compound at the maximum absorption wavelength. […] It can be confirmed that, as the degrees of hydrogen bonding of water molecule to the nitrogen atom in Compounds 13 to 17 are reduced, the fluorescence intensities increase.

[2] = Two-photon absorption cross-section by two-photon induced fluorescence method; type: physicochemical; details: water (containing 1% DMSO); excitation 800 nm, 820 nm, 840 nm; FIG. 35
Excerpt: Specifically, to confirm the fluorescence properties of the two-photon absorbing fluorophores under two-photon excitation, the inventors measured fluorescence spectra by two-photon excitation using a titanium:sapphire oscillator (Ti:sapphire oscillator), which was pumped by a frequency-doubled neodimium:yttrium orthovanadate laser (Nd:YVO4 laser; Verdi, Coherent) with an output power of 5.0 W. Output pulse energy was 40 nJ, and repetition rate was 380 kHz.
In addition, two-photon absorption cross-section values of each of Compounds 1 and 5 to 7 in dichloromethane solution, acetonitrile solution, and water (containing 1% DMSO) were measured, and the results are shown in FIGS. 28 and 29. Two-photon absorption cross-section values of each of Compounds 10 to 12 in a dichloromethane solution, an acetonitrile solution, and water (containing 1% DMSO) were measured, and the results are shown in FIG. 35. As a comparative compound, rhodamine B generally used as a fluorescent probe was used (two-photon absorption cross-section values, GM=300 (740 nm), 470 (760 nm) and 540 (780 nm), measured in an ethanol solution). Two-photon absorption cross-section values were measured by a two-photon induced fluorescence method (Fischer, A. et al. Applied Optics 1995, 34, 1989), 1 GM refers to 10^−50 cm^4 s photon^−1 molecule^−1.

[3] = Absorbance spectra / molar extinction coefficients at the maximum absorption wavelength; type: physicochemical; details: water (containing 1% DMSO), acetonitrile, and dichloromethane; FIG. 33
Experimental: Specifically, to confirm the absorbing properties of two-photon absorbing fluorophores, the inventors measured absorbance spectra for Compounds 1 to 9 at the concentration of 10 μM in HEPES buffer (containing 1% DMSO, pH 7.4) and water (containing 1% DMSO), contained in quartz cells with a light path length of 1 cm, and the results are respectively shown in the left and right graphs of FIG. 2. Absorbance spectra for Compounds 1 to 9 at the concentration of 10 μM in ethanol and acetonitrile were measured, and the results are respectively shown in the left and right graphs of FIG. 3. Absorbance spectra for Compounds 1 to 9 at the concentration of 10 μM in dimethylformamide and dichloromethane were measured, and the results are respectively shown in the left and right graphs of FIG. 4. Absorbance spectra for Compounds 1 to 9 at the concentration of 10 μM in cyclohexane were measured, and the result is shown in FIG. 5. Absorbance spectra for Compounds 10 to 12 at the concentration of 10 μM in water (a, containing 1% DMSO), acetonitrile (b), and dichloromethane (c) were measured, and the results are shown in FIG. 31. The absorbance spectra were measured using a HP 8453 UV/Vis spectrophotometer. […]

[4] = Fluorescence quantum yield (reference rhodamine B); type: physicochemical; details: water (containing 1% DMSO); FIGS. 15 and 34
Experimental: Further, fluorescence quantum yields of Compounds 1 to 9 in dichloromethane, acetonitrile, and water (containing 1% DMSO) were measured, and the results are shown in FIG. 15. Fluorescence quantum yields of Compounds 10 to 12 in dichloromethane, acetonitrile, and water (containing 1% DMSO) were measured, and the results are shown in FIG. 34. As a reference compound, rhodamine B was used (fluorescence quantum yield, ΦF=0.6, measured in ethanol).

[5] = reference compound; measured in ethanol; cited from earlier work
[6] = comparative compound, ethanol solution, cited from earlier work

melting point: 192 to 194 °C
Compound: CC(=O)c1ccc2cc(N(C)C3CCC(O)CC3)ccc2c1 (centres unmarked) [Compound 9, 1-(6-((4-hydroxycyclohexyl)(methyl)amino)naphthalen-2-yl)ethanone]

fluorescence intensities [1]: increase of fluorescence intensity
Compound: CC(=O)c1ccc2cc(N3CCCC3)ccc2c1 [Compound 18]

melting point: 112 to 114 °C
Compound: CC(=O)c1ccc2cc(NC(C)C)ccc2c1 [Compound 3, 1-(6-(isopropylamino)naphthalen-2-yl)ethanone]

melting point: 149 to 151 °C
Compound: CC(=O)c1ccc2cc(N3CCOCC3)ccc2c1 [Compound 8, 1-(6-morpholinonaphthalen-2-yl)ethanone]

melting point: 182 °C
Compound: CNc1ccc2cc(C(C)=O)ccc2c1 [Compound 4, 1-(6-(methylamino)naphthalen-2-yl)ethanone]

melting point: 186 to 188 °C
Compound: CC(=O)c1ccc2cc(NC3CCC(O)CC3)ccc2c1 (centres unmarked) [Compound 5, 1-(6-(4-hydroxycyclohexylamino)naphthalen-2-yl)ethanone]

Compound: O=C1c2cccc3c(NC4CCC(O)CC4)ccc(c23)C(=O)N1CCO (centres unmarked) [Compound 10, 6-(4-hydroxycyclohexylamino)-2-(2-hydroxyethyl)-1H-benzo[de]isoquinoline-1,3(2H)-dione]
two-photon absorption cross-section value [2]: higher than those of the conventional Compounds 11 and 12
molar extinction coefficients [3]: higher than those of the conventional Compound 11 (Formula 11) and Compound 12 (Formula 12)
fluorescence quantum yield [4]: higher than those of the conventional Compounds 11 and 12

Compound: CCN(CC)c1ccc2c(-c3ccccc3C(=O)O)c3ccc(=[N+](CC)CC)cc-3oc2c1.[Cl-] [rhodamine B]
fluorescence quantum yield, ΦF [5]: 0.6
two-photon absorption cross-section value ([6]; 740 nm): 300 GM
two-photon absorption cross-section value ([6]; 760 nm): 470 GM
two-photon absorption cross-section value ([6]; 780 nm): 540 GM

melting point: 118 to 120 °C
Compound: CC(=O)c1ccc2cc(N3C4CCC3CC4)ccc2c1
